Patent publication EP0531958A1, “6-Aminoquinolones, their synthesis and their use as antibacterial agents” (MEDIOLANUM FARMACEUTICI S.P.A., priority 1991, dated 1993)
In brackets after ≈: the same amount, converted by molar mass. Read-outs that look alike come from different tables or passages of the source.

Key:
Type in all cases: cell-based
Escherichia coli ISF 432 = test: MIC test, agar dilution with Steers multiwell inoculator; conditions: ISF432, TSA dishes, 24 h at 35°C, read-out: Minimum Inhibiting Concentration
Method: (§1) As to the antibacterial activity, there was determined the Least (Minimum) Inhibiting Concentration (MIC), by working according to the following operative conditions.
(§2) There were used suspensions of test germs (5 gram-positive and 15 gram-negative) having a known titre, kept freezed at -80°C and diluted, at the time of use, in peptonized water up to a concentration of 1-2.10⁷ cfu/ml.
(§3) A few mg of the products, according to the invention were weighed sufficient for preparing parent solutions in DMSO + NaOH (1N) containing 2560 µg/ml (64µg/ml/dish). From the thus prepared parent solutions there were prepared 12 serial dilutions (1:2) down to the concentration of 1.25 µg/ml.
(§4) 0.5 ml of the different dilutions of each product were distributed on dishes containing 19.5 ml of agarized medium (TSA), maintained in a fluid state at the temperature of 50°C. After slight stirring, the dishes were made to solidify and dry under hood (laminar flow).
(§5) The MIC tests (Least or "Minimum" Inhibiting Concentration) were performed by using a Steers multiwell inoculator having 36 wells, each containing 200 µl of bacterial suspension.
(§6) After inoculation, the dishes were placed into a thermostat and checked after 24 h of incubation at 35°C.
(§7) The MIC is defined as the lowermost product concentration (µg/ml) inhibiting the visible growth of the microorganisms.

[1] = test system: Staphylococcus aureus ATCC 6538; test: as above; conditions: ATCC6538, TSA dishes, 24 h at 35°C, read-out: Minimum Inhibiting Concentration
Method: as §1, §2, §3, §4, §5, §6, §7

[2] = test system: Klebsiella pneumoniae ATCC 10031; test: as above; conditions: ATCC10031, TSA dishes, 24 h at 35°C, read-out: Minimum Inhibiting Concentration
Method: as §1, §2, §3, §4, §5, §6, §7

[3] = test system: Acinebacter calcoloaceticus OSMPV 1130; test: as above; conditions: TSA dishes, 24 h at 35°C, read-out: Minimum Inhibiting Concentration
Method: as §1, §2, §3, §4, §5, §6, §7

Proteus vulgaris CNUR 6 = test: as above; conditions: CNUR6, TSA dishes, 24 h at 35°C, read-out: Minimum Inhibiting Concentration
Method: as §1, §2, §3, §4, §5, §6, §7

[4] = test system: Staphylococcus aureus MPR 5; test: as above; conditions: MPR5, TSA dishes, 24 h at 35°C, read-out: Minimum Inhibiting Concentration
Method: as §1, §2, §3, §4, §5, §6, §7

Shighella enteritidis = test: as above; conditions: TSA dishes, 24 h at 35°C, read-out: Minimum Inhibiting Concentration
Method: as §1, §2, §3, §4, §5, §6, §7

Escherichia coli 120 = test: as above; conditions: TSA dishes, 24 h at 35°C, read-out: Minimum Inhibiting Concentration
Method: as §1, §2, §3, §4, §5, §6, §7

Escherichia coli CNUR 1 = test: as above; conditions: CNUR1, TSA dishes, 24 h at 35°C, read-out: Minimum Inhibiting Concentration
Method: as §1, §2, §3, §4, §5, §6, §7

[5] = test system: Escherichia coli ATCC 8739; test: as above; conditions: ATCC8739, TSA dishes, 24 h at 35°C, read-out: Minimum Inhibiting Concentration
Method: as §1, §2, §3, §4, §5, §6, §7

[6] = test system: Pseudomonas aeruginosa ATCC 9027; test: as above; conditions: ATCC9027, TSA dishes, 24 h at 35°C, read-out: Minimum Inhibiting Concentration
Method: as §1, §2, §3, §4, §5, §6, §7

Escherichia coli CNUR 8 = test: as above; conditions: CNUR8, TSA dishes, 24 h at 35°C, read-out: Minimum Inhibiting Concentration
Method: as §1, §2, §3, §4, §5, §6, §7

[7] = test system: Pseudomonas aeruginosa CNUR 4; test: as above; conditions: CNUR4, TSA dishes, 24 h at 35°C, read-out: Minimum Inhibiting Concentration
Method: as §1, §2, §3, §4, §5, §6, §7

[8] = test system: Enterobacter cloacae OMNF 1174; test: as above; conditions: OMNF1174, TSA dishes, 24 h at 35°C, read-out: Minimum Inhibiting Concentration
Method: as §1, §2, §3, §4, §5, §6, §7

[9] = test system: Pseudomonas aeruginosa CNUR 2; test: as above; conditions: CNUR2, TSA dishes, 24 h at 35°C, read-out: Minimum Inhibiting Concentration
Method: as §1, §2, §3, §4, §5, §6, §7

[10] = test system: Enterobacter cloacae OMNF 1153; test: as above; conditions: OMNF1153, TSA dishes, 24 h at 35°C, read-out: Minimum Inhibiting Concentration
Method: as §1, §2, §3, §4, §5, §6, §7

[11] = test system: Staphylococcus epidermidis CPHL A2; test: as above; conditions: CPHLA2, TSA dishes, 24 h at 35°C, read-out: Minimum Inhibiting Concentration
Method: as §1, §2, §3, §4, §5, §6, §7

[12] = test system: Providencia stuardii CNUR 5; test: as above; conditions: CNUR5, TSA dishes, 24 h at 35°C, read-out: Minimum Inhibiting Concentration
Method: as §1, §2, §3, §4, §5, §6, §7

[13] = test system: Streptococcus facealis LEP Br.; test: as above; conditions: TSA dishes, 24 h at 35°C, read-out: Minimum Inhibiting Concentration
Method: as §1, §2, §3, §4, §5, §6, §7

[14] = test system: Staphylococcus epidermidis HCF Berset C.; test: as above; conditions: TSA dishes, 24 h at 35°C, read-out: Minimum Inhibiting Concentration
Method: as §1, §2, §3, §4, §5, §6, §7

Gram - = test: MIC test, average over the 15 gram-negative test germs; conditions: 24 h
Method: as §1, §2, §3, §4, §5, §6, §7

Gram + = test: MIC test, average over the 5 gram-positive test germs; conditions: 24 h
Method: as §1, §2, §3, §4, §5, §6, §7

[15] = geometrical average of the MIC over the 15 Gram - strains, read-out: Geometrical Average
[16] = mean log of the MIC over the 15 Gram - strains, read-out: Log (converted)
[17] = geometrical average of the MIC over the 5 Gram + strains, read-out: Geometrical Average

SMILES	MIC (Escherichia coli ISF 432)	MIC [1]	MIC [2]	MIC [3]	MIC (Proteus vulgaris CNUR 6)	MIC [4]	MIC (Escherichia coli 120)	MIC (Escherichia coli CNUR 1)	MIC [5]	MIC [6]	MIC (Escherichia coli CNUR 8)	MIC [7]	MIC [8]	MIC [9]	MIC [10]	MIC [11]	MIC [12]	MIC [13]	MIC [14]	MIC (Gram -; [15])	other results
CN1CCN(c2c(N)cc3c(=O)c(C(=O)O)cn(C4CC4)c3c2F)CC1 [Compound 22]	0.06 µg/mL (≈ 0.166 µM)	4 µg/mL (≈ 11.1 µM)	0.06 µg/mL (≈ 0.166 µM)	8 µg/mL (≈ 22.2 µM)	32 µg/mL (≈ 88.8 µM)	4 µg/mL (≈ 11.1 µM)	0.06 µg/mL (≈ 0.166 µM)	0.12 µg/mL (≈ 0.333 µM)	1 µg/mL (≈ 2.77 µM)	2 µg/mL (≈ 5.55 µM)	0.12 µg/mL (≈ 0.333 µM)	32 µg/mL (≈ 88.8 µM)	0.25 µg/mL (≈ 0.694 µM)	8 µg/mL (≈ 22.2 µM)	0.25 µg/mL (≈ 0.694 µM)	4 µg/mL (≈ 11.1 µM)	4 µg/mL (≈ 11.1 µM)	64 µg/mL (≈ 178 µM)	8 µg/mL (≈ 22.2 µM)	0.783 µg/mL (≈ 2.17 µM)	MIC (Shighella enteritidis): 0.25 µg/mL (≈ 0.694 µM); MIC (Gram -; [16]): 0.783 µg/mL (≈ 2.17 µM); MIC (Gram +; read-out: Log (converted)): 8 µg/mL (≈ 22.2 µM)
CN1CCN(c2nc3c(cc2N)c(=O)c(C(=O)O)cn3C2CC2)CC1 [Compound 40, chlorhydrate of the 6-amino-1-cyclopropyl-7-(4-methyl-1-piperazinyl)-1,4-dihydro-4-oxo-1,8-naphthyridine carboxylic acid]	0.03 µg/mL	4 µg/mL	0.03 µg/mL	2 µg/mL	64 µg/mL	4 µg/mL	0.06 µg/mL	0.12 µg/mL	0.12 µg/mL	2 µg/mL	0.06 µg/mL	64 µg/mL	0.12 µg/mL	4 µg/mL	0.12 µg/mL	4 µg/mL	2 µg/mL	32 µg/mL	4 µg/mL	0.466 µg/mL	MIC (Shighella enteritidis): 0.12 µg/mL; MIC (Gram -; [16]): 0.466 µg/mL; MIC (Gram +; [17]): 6.06 µg/mL; MIC (Gram +; read-out: Log (converted)): 6.07 µg/mL
Cc1c(N2CCc3ccccc3C2)c(N)cc2c(=O)c(C(=O)O)cn(C3CC3)c12 [Compound 36, 6-amino-1-cyclopropyl-8-methyl-7-[2-(1,2,3,4-tetrahydroisoquinolinyl)]-carboxylic acid]	0.25 µg/mL (≈ 0.642 µM)	0.5 µg/mL (≈ 1.28 µM)	0.12 µg/mL (≈ 0.308 µM)	8 µg/mL (≈ 20.5 µM)	64 µg/mL (≈ 164 µM)	0.5 µg/mL (≈ 1.28 µM)	2 µg/mL (≈ 5.14 µM)	4 µg/mL (≈ 10.3 µM)	0.12 µg/mL (≈ 0.308 µM)	32 µg/mL (≈ 82.2 µM)	2 µg/mL (≈ 5.14 µM)	128 µg/mL (≈ 329 µM)	8 µg/mL (≈ 20.5 µM)	8 µg/mL (≈ 20.5 µM)	8 µg/mL (≈ 20.5 µM)	1 µg/mL (≈ 2.57 µM)	2 µg/mL (≈ 5.14 µM)	4 µg/mL (≈ 10.3 µM)	2 µg/mL (≈ 5.14 µM)	3.98 µg/mL (≈ 10.2 µM)	MIC (Gram -; [16]): 3.98 µg/mL (≈ 10.2 µM); MIC (Gram +; [17]): 1.15 µg/mL; MIC (Gram +; read-out: Log (converted)): 1.15 µg/mL (≈ 2.95 µM)
CC1CN(c2cc3c(cc2N)c(=O)c(C(=O)O)cn3C2CC2)CCN1 (stereo not shown) [Compound 14]	0.03 µg/mL (≈ 0.0876 µM)	16 µg/mL (≈ 46.7 µM)	0.03 µg/mL (≈ 0.0876 µM)	16 µg/mL (≈ 46.7 µM)	32 µg/mL (≈ 93.5 µM)	16 µg/mL (≈ 46.7 µM)	0.06 µg/mL (≈ 0.175 µM)	0.12 µg/mL (≈ 0.35 µM)	0.03 µg/mL (≈ 0.0876 µM)	2 µg/mL (≈ 5.84 µM)	0.12 µg/mL (≈ 0.35 µM)	64 µg/mL (≈ 187 µM)	0.25 µg/mL (≈ 0.73 µM)	4 µg/mL (≈ 11.7 µM)	0.5 µg/mL (≈ 1.46 µM)	4 µg/mL (≈ 11.7 µM)	16 µg/mL (≈ 46.7 µM)	32 µg/mL (≈ 93.5 µM)	4 µg/mL (≈ 11.7 µM)	0.68 µg/mL (≈ 1.99 µM)	MIC (Shighella enteritidis): 0.25 µg/mL (≈ 0.73 µM); MIC (Gram -; [16]): 0.679 µg/mL (≈ 1.98 µM); MIC (Gram +; [17]): 10.6 µg/mL; MIC (Gram +; read-out: Log (converted)): 10.5 µg/mL (≈ 30.8 µM)
